Broadly, the ED50 is the midpoint of the dose-response relation. By LD50 is commonly meant the dose expected to kill half of the subjects tested. Higher therefore signals a less toxic substance.

One data set relates to tetrabenazine ptosis. As to the kind of experiment: Tetrabenazin ptosis antagonism (Hoffmeister et al.). In kind it is in vivo. The conditions noted are these: Table III. As for the experimental part:
The test is carried out by the method of Hoffmeister et al. adapted to mice. Groups consisting of 10-20 animals are treated orally with each dose of the test compound. The control group is treated orally with the carrier. Thirty minutes later a 50 mg/kg i.p. tetrabenazine dose is administered, whereupon after 30, 60, 90 and 120 minutes the animals with closed eye-lids are counted in each group.
On the basis of all measurements an average ptosis is calculated for each group and expressed as the percentile deviation (inhibition) from the control group. On the basis of the data thus obtained ED50 values are calculated.
[Hoffmeister, F., Wuttke, W., and Kroneberg, G.: Arzneim. Forsch. (Drug.

Another data set in a line: in vivo. The conditions noted are these: mouse, in vivo, po. The protocol:
(§1) Male and female white mice (CFLP strain, 18-22 g) are used, 10 animals per dose. The test compounds are administered orally in a volume of 20 ml/kg. After administration the mice are observed for a period of 7 days. The animals are kept in plastic boxes, on wood litter, at room temperature. The animals receive standard mouse fodder and tap water ad libitum.

For data set [1], the system named is experimental coronary insufficiency induced by vasopressine. The data set is described as follows: Antianginal effect on rats, vasopressine-induced coronary insufficiency, T-wave (Nieschultz). In kind it is in vivo, male rats. The conditions noted are these: Table IX, dose 2 mg/kg, vasopressine 1 IU/kg i.v. The protocol: The test is carried out on male rats weighing 180-220 g. The animals are narcotized with the aid of chloralose urethane (70-700 mg/kg i.p.). ECG is registered by means of needle electrodes in standard II output. Antianginal effect is tested according to the method of Nieschultz. Experimental coronary insufficiency is induced by administering vasopressine (1 IU/kg i.v.) on 10-12 animals for each dose. The magnitude of the T-wave before and after the administration of vasopressine is measured in the treated and control groups.

The next data set concerns ulcus secretion. The data set is described as follows: animal or person. In kind it is in vivo. The protocol:
The test is carried out according to the method of Nakamura on rats (Wistar strain) weighing 150-230 g and fasted for 48 hours. Each animal group consists of 4 male and 4 female rats. On the day of the experiment the pylorus of the animals is bound and the corresponding dose of the test compound is administered orally immidiately after operation. The animals are killed with ether 5 hours after the operation, their stomach is removed, cut along the large curve and placed on plastic plates.

The test system of the next data set is mice. The data set is described as follows: in vivo. The conditions noted are these: oral, mice, 10080 min. The protocol:
as §1

The next data set deals with motility. The data set is described as follows: animal or person. Format: in vivo. As for the experimental part:
The test is accomplished according to the method of Borsy et al. in a 10-channel Dews system equipment, whereby 3 mice are used per channel. The test compound or the carrier, respectively, is administered orally, and one hour after the said treatment the animals are placed into the apparatus and the number of the interruptions of infrared radiation is registered for 30 minutes.
The results are summarized in Table II and documented by means of suitable statistics for each experiment.
[J. Borsy, E. Csanyi, I. Lazar: Arch. Int. Pharmacodyn. 124, 1 (1960)].

The test system of the next data set is hexobarbital narcosis. The data set is described as follows: Hexobarbital narcosis potentiating effect.

A value given as a limit tells only on which side of the number the result lay.

Method for hexobarbital narcosis: The test is carried out on white mice. Groups consisting of six mice are used for each dose and test compound. The test compound is administered orally and an hour after this treatment narcosis is induced by means of a 40 mg/kg i.v. dose of hexobarbital. The control group receives carrier instead of the test compound.
Those mice are considered to be having a positive reaction which show a narcosis time at least 2.5 times longer than that of the control group. The ED50 values thus transformed are calculated.

`CC1(C)CC(/C=C/c2ccc(Cl)cc2)=CC(=N/OCCCN2CCN(Cc3ccccc3)CC2)/C1` [Example 20, 5,5-Dimethyl-3-(E)-[(4'-chloro-phenyl)-vinyl]-1-(E)-(4"-phenyl-methyl-1"-piperazinyl-propoxyimino)-2-cyclohexene]: the median effective dose (ED50) in the data set with tetrabenazine ptosis (Mus musculus, oral, 30 min before tetrabenazin 50 mg/kg i.p.) was 8.5 mg/kg. This compound also returned a Therapeutical index in the data set with tetrabenazine ptosis (tetrabenazin ptosis, LD50/ED50) of 235.3. Further, the LD50 at 168 h in the data set “in vivo” worked out at 2000 mg/kg. In addition, the Inhibition % in data set [1] is -54.4%.
As to `COc1cccc(/C=C/C2=CC(=N/OCCCN3CCOCC3)/CC(C)(C)C2)c1` [Example 30, 5,5-Dimethyl-3-(E)-[(3'-methoxy-phenyl)-vinyl]-1-(E)-(N-morpholino-propoxyimino)-2-cyclohexene], the median effective dose (ED50) with ulcus secretion (Rattus norvegicus, po, 5 h) was about 150 mg/kg; in the data set on motility (Mus musculus, po) it was about 200 mg/kg; with hexobarbital narcosis (Mus musculus, po), 21.5 mg/kg. In addition, the Therapeutical index entry with ulcus secretion (Table X, ulcus secretion, LD50/ED50) is “above 13.3”; with motility (Table II, motility inhibition, LD50/ED50) it was over 10.0. The LD50 with mice (Table I) and with mice (Table II) was over 2000 mg/kg throughout. In the data set “in vivo”, this compound gave an LD50 at 168 h of over 2000 mg/kg. The Inhibition % in data set [1] was -45%. Also, the “Therapeutical index LD50 /ED50” value in the data set on hexobarbital narcosis (Table I, hexobarbital narcosis) is listed as over 93.0.
